In patent US20210070747A1, “2(1H)-QUINOLINONE DERIVATIVE” (priority 2017, published 2021):
Like-named read-outs stand apart in the source and are kept apart here.

Assays:
E. coli DNA gyrase = molecular target: T1, E. coli DNA gyrase (Escherichia coli, UniProt P0AES6); experiment: Test for evaluating the activity of inhibiting E. coli DNA gyrase enzyme (Method 2, supercoiling, recombinant gyrA/gyrB complex); format: biochemical
T1 construct: made in house; host or cells: E. coli BL21 (DE3)
Protocol: The enzymatic activity of E. coli DNA gyrase was measured by a method comprising reacting DNA gyrase and its substrate, relaxed pBR322 (Inspiralis), in the presence of ATP and detecting the post-reaction supercoiled pBR322/relaxed pBR322 ratio with H19.
Specifically, to 1 ng/μL of relaxed pBR322, E. coli DNA gyrase enzyme (the gyrA or gyrB gene was incorporated into the pET15b plasmid and after expressing them in E. coli BL21 (DE3), purification was performed using a Ni-NTA column to form a complex at room temperature) was added at a final concentration of 0.135 nmol/mL and the mixture was incubated for 60 minutes at room temperature. This reaction was carried out in 20 mmol/L tris-HCl buffered solution (pH 8.0) comprising 0.5 mmol/L ATP, 0.005% bridge 35, 35 mmol/L ammonium acetate, 8 mmol/L magnesium chloride, 4.6% glycerol, and 1 mmol/L dithiothreitol. To the reaction mixture, H19 was added to bring the reaction to an end; thereafter, the supercoiled pBR322/relaxed pBR322 ratio was detected at excitation wavelength/emission wavelength=485 nm/535 nm. An inhibition curve was obtained by allowing the analyte compound to be present at varying concentrations during the reaction described above.

E. Coli ATCC 25922 = experiment: Test for evaluating antibacterial activity (E. coli), broth microdilution MIC; format: cell-based; conditions: Escherichia coli, ATCC25922; 35° C., 18 hours, cation-adjusted Mueller-Hinton medium
Protocol: Minimum inhibitory concentration (MIC) was measured using the broth microdilution method described below in accordance with a modification of the standard method specified by CLSI (Clinical & Laboratory Standards Institute).
Bacterial cells under test were cultured overnight on a heart infusion agar medium, scraped off and suspended at a concentration equivalent to McFarland 0.5 turbidity; the suspension thus obtained was diluted 10 folds to give a liquid inoculum. The inoculum (0.005 mL) was inoculated on a cation-adjusted Mueller-Hinton medium containing the analyte compound and cultured at 35° C. for 18 hours. A minimum drug concentration at which no bacterial growth was macroscopically visible was designated MIC.

[1] = Method 2, read-out: E. Coli Gyrase supercoiling IC50

SMILES	IC50 (E. coli DNA gyrase; [1]) [µM]	MIC (E. Coli ATCC 25922) [µg/mL]	IC50 (E. coli DNA gyrase) [µM]
CNc1cc(F)cc2cc(C(=O)Nc3ccc(C(=O)O)cc3CCN(C)C)c(=O)[nH]c12 [Example 115, 3-[2-(dimethylamino)ethyl]-4-{[6-fluoro-8-(methylamino)-2-oxo-1,2-dihydroquinoline-3-carbonyl]amino} benzoic acid]	0.00457	> 4	–
CNc1cc(F)cc2cc(C(=O)Nc3ccc(C(=O)O)cc3/C=C/CCO)c(=O)[nH]c12 [Example 119, 4-[[6-Fluoro-8-(methylamino)-2-oxo-1,2-dihydroquinoline-3-carbonyl]amino]-3-[(1E)-4-hydroxybut-1-en-1-yl]benzoic Acid]	0.0206	> 64	–
CNc1cc(F)cc2cc(C(=O)Nc3ccc(C(=O)O)cc3CCCCO)c(=O)[nH]c12 [Example 120, 4-[[6-Fluoro-8-(methylamino)-2-oxo-1,2-dihydroquinoline-3-carbonyl]amino]-3-(4-hydroxybutyl)benzoic Acid]	0.0325	> 32	–
CNc1cc(F)cc2cc(C(=O)Nc3ccc(C(=O)O)cc3/C=C/CCN(C)C)c(=O)[nH]c12.Cl [Example 125, 3-[(1E)-4-(dimethylamino)but-1-en-1-yl]-4-{[6-fluoro-8-(methylamino)-2-oxo-1,2-dihydroquinoline-3-carbonyl]amino}benzoic acid-hydrochloride]	–	> 32	0.0246
CNc1cc(F)cc2cc(C(=O)Nc3ccc(C(=O)O)cc3CCCCN(C)C)c(=O)[nH]c12 [Example 126, 3-[4-(dimethylamino)butyl]-4-{[6-fluoro-8-(methylamino)-2-oxo-1,2-dihydroquinoline-3-carbonyl]amino}benzoic acid]	0.022	> 8	–
CCOC(=O)c1ccc(NC(=O)c2c(O)c3cc(F)cc(NC)c3[nH]c2=O)cc1 [Example 127, Ethyl 4-[[6-fluoro-4-hydroxy-8-(methylamino)-2-oxo-1,2-dihydroquinoline-3-carbonyl]amino]benzoate]	0.214	> 16	–
CNc1cc(F)cc2cc(CNc3ccc(C(=O)O)cc3CN(C)C3CCCCC3)c(=O)[nH]c12 [Example 128, 3-[[Cyclohexyl(methyl)amino]methyl]-4-([[6-fluoro-8-(methylamino)-2-oxo-1,2-dihydroquinolin-3-yl]methyl]amino)benzoic Acid]	0.34	> 16	–
CNCCc1c(C(=O)Nc2ccc(C(=O)O)cc2)c(=O)[nH]c2c(NC)cc(F)cc12.O=C(O)C(F)(F)F [Example 130, 4-([6-Fluoro-8-(methylamino)-4-[2-(methylamino)ethyl]-2-oxo-1,2-dihydroquinoline-3-carbonyl]amino)benzoic acid-trifluoroacetate]	–	> 8	0.109
CNc1cc(F)cc2c(NCCN)c(C(=O)Nc3ccc(C(=O)O)cc3)c(=O)[nH]c12.O=CO [Example 131, 4-([4-[(2-Aminoethyl)amino]-6-fluoro-8-(methylamino)-2-oxo-1,2-dihydroquinoline-3-carbonyl]amino)benzoic Acid-Formate]	–	> 16	0.00094
CNCCCc1c(C(=O)Nc2ccc(C(=O)O)cc2)c(=O)[nH]c2c(NC)cc(F)cc12.O=C(O)C(F)(F)F [Example 134, 4-([6-Fluoro-8-(methylamino)-4-[3-(methylamino)propyl]-2-oxo-1,2-dihydroquinoline-3-carbonyl]amino)benzoic Acid-Trifluoroacetate]	–	> 32	0.131
CNc1cc(F)cc2c(NC[C@H]3C[C@H](N)C3)c(C(=O)Nc3ccc(C(=O)O)cc3)c(=O)[nH]c12.O=CO [Example 136, 4-{[4-{[(trans-3-aminocyclobutyl)methyl]amino}-6-fluoro-8-(methylamino)-2-oxo-1,2-dihydroquinoline-3-carbonyl]amino}benzoic acid-formate]	–	> 32	0.00128
CNc1cc(F)cc2c(NCC3CCNCC3)c(C(=O)Nc3ccc(C(=O)O)cc3)c(=O)[nH]c12.O=CO [Example 137, 4-{[6-fluoro-8-(methylamino)-2-oxo-4-{[(piperidine-4-yl)methyl]amino}-1,2-dihydroquinoline-3-carbonyl]amino}benzoic acid-formate]	–	> 32	0.00131
CNc1cc(F)cc2c(NC3CC34CCNCC4)c(C(=O)Nc3ccc(C(=O)O)cc3)c(=O)[nH]c12.O=CO (stereo not shown) [Example 139, 4-({4-[(6-azaspiro[2.5]octane-1-yl)amino]-6-fluoro-8-(methylamino)-2-oxo-1,2-dihydroquinoline-3-carbonyl}amino)benzoic acid-formate]	–	> 64	0.00694
CNc1cc(F)cc2c(NCC3(N)CCC3)c(C(=O)Nc3ccc(C(=O)O)cc3)c(=O)[nH]c12.O=CO [Example 140, 4-{[4-{[(1-aminocyclobutyl)methyl]amino}-6-fluoro-8-(methylamino)-2-oxo-1,2-dihydroquinoline-3-carbonyl]amino}benzoic acid-formate]	–	> 32	0.00215
CNCCNc1c(C(=O)Nc2ccc(C(=O)O)cc2)c(=O)[nH]c2c(NC)cc(F)cc12.O=CO [Example 141, 4-{[6-fluoro-8-(methylamino)-4-{[2-(methylamino)ethyl]amino}-2-oxo-1,2-dihydroquinoline-3-carobnyl]amino}benzoic acid-formate]	–	> 16	0.00209
CNc1cc(F)cc2c(N[C@H]3C[C@@H](N)C3)c(C(=O)Nc3ccc(C(=O)O)cc3)c(=O)[nH]c12 [Example 142, 4-({4-[(cis-3-aminocyclobutyl)amino]-6-fluoro-8-(methylamino)-2-oxo-1,2-dihydroquinoline-carbonyl}amino) 3-benzoic acid-formate]	0.00266	> 32	–
CNc1cc(F)cc2c(NCCN3CCOCC3)c(C(=O)Nc3ccc(C(=O)O)cc3)c(=O)[nH]c12.O=CO [Example 143, 4-{[6-fluoro-8-(methylamino)-4-{[2-(morpholine-4-yl)ethyl]amino}-2-oxo-1,2-dihydroquinoline-3-carbonyl]amino}benzoic acid-formate]	–	> 64	0.0146
CNc1cccc2cc(C(=O)Nc3ccc(CC(=O)O)cc3)c(=O)[nH]c12 [Example 166, (4-{[8-(methylamino)-2-oxo-1,2-dihydroquinoline-3-carbonyl]amino}phenyl)acetic acid]	0.0181	> 16	–
CNc1cccc2cc(C(=O)NCCc3ccc(C(=O)O)cc3)c(=O)[nH]c12 [Example 167, 4-(2-{[8-(methylamino)-2-oxo-1,2-dihydroquinoline-3-carbonyl]amino}ethyl)benzoic acid]	0.134	> 32	–
CNc1cccc2cc(C(=O)NCc3cccc(C(=O)O)c3)c(=O)[nH]c12 [Example 168, 3-({[8-(methylamino)-2-oxo-1,2-dihydroquinoline-3-carbonyl]amino}methyl)benzoic acid]	1.67	> 32	–
